This is an account of results in patent US20130053395A1, “PYRAZOLOPYRIDINE KINASE INHIBITORS” (VERTEX PHARMACEUTICALS INCORPORATED, priority 2010, published 2013).

One assay concerns the target PKC theta kinase (Homo sapiens, UniProt Q04759). As to the kind of experiment: PKC theta kinase coupled-enzyme (NADH) Ki assay. The format is biochemical. The following applies: 18 nM PKC theta, 240 μM ATP, 30° C., initial rate at 340 nM. The procedure: An assay buffer solution was prepared which consisted of 100 mM HEPES (pH 7.5), 10 mM MgCl2, 25 mM NaCl, 0.1 mM EDTA and 0.01% Brij. An enzyme buffer containing reagents to final assay concentrations of 0.00001% Triton X-100, 200 μg/mL Phosphatidylserine, 20 μg/mL Diacylglycerol, 360 μM NADH, 3 mM phosphoenolpyruvate, 70 μg/mL pyruvate kinase, 24 μg/mL lactate dehydrogenase, 2 mM DTT, 100 μM substrate peptide ([…] SEQ ID NO. 1) and 18 nM PKC theta kinase was prepared in assay buffer. To 60 μL of this enzyme buffer, in a 384 well plate, was added 2 μL of VRT stock solution in DMSO. The mixture was allowed to equilibrate for 10 mins at 30° C. The enzyme reaction was initiated by the addition of 5 μL stock ATP solution prepared in assay buffer to a final assay concentration of 240 μM. Initial rate data was determined from the rate of change of absorbance at 340 nm (corresponding to stoichiometric consumption of NADH) using a Molecular Devices Spectramax plate reader (Sunnyvale, Calif.) over 15 mins at 30° C. For each Ki determination 12 data points covering the VRT concentration range of 0-20 μM were obtained in duplicate (DMSO stocks were prepared from an initial 10 mM VRT stock with subsequent 1:2 serial dilutions). Ki values were calculated from initial rate data by non-linear regression using the Prism software package (Prism 4.0a, Graphpad Software, San Diego, Calif.).

For the next assay, the target named is PKC delta kinase (Homo sapiens, UniProt Q05655). Put plainly: PKC delta kinase coupled-enzyme (NADH) Ki assay. The format is biochemical. The following applies: 46 nM PKC delta, 150 μM ATP, 30° C., initial rate at 340 nM. The procedure:
An assay buffer solution was prepared which consisted of 100 mM HEPES (pH 7.5), 10 mM MgCl2, 25 mM NaCl, 0.1 mM EDTA and 0.01% Brij. An enzyme buffer containing reagents to final assay concentrations of 0.002% Triton X-100, 200 μg/mL Phosphatidylserine, 20 μg/mL Diacylglycerol, 360 μM NADH, 3 mM phosphoenolpyruvate, 70 μg/mL pyruvate kinase, 24 μg/mL lactate dehydrogenase, 2 mM DTT, 150 μM substrate peptide ([…] SEQ ID NO. 2) and 46 nM PKC delta kinase was prepared in assay buffer. To 16 μL of this enzyme buffer, in a 384 well plate, was added 1 μL of VRT stock solution in DMSO. The mixture was allowed to equilibrate for 10 mins at 30° C. The enzyme reaction was initiated by the addition of 16 μL stock ATP solution prepared in assay buffer to a final assay concentration of 150 μM. Initial rate data was determined from the rate of change of absorbance at 340 nm (corresponding to stoichiometric consumption of NADH) using a Molecular Devices Spectramax plate reader (Sunnyvale, Calif.) over 15 mins at 30° C. For each Ki determination 12 data points covering the VRT concentration range of 0-20 μM were obtained in duplicate (DMSO stocks were prepared from an initial 10 mM VRT stock with subsequent 1:2 serial dilutions). Ki values were calculated from initial rate data by non-linear regression using the Prism software package (Prism 4.0a, Graphpad Software, San Diego, Calif.).

Chain of PKC delta kinase (Q05655 whole entry): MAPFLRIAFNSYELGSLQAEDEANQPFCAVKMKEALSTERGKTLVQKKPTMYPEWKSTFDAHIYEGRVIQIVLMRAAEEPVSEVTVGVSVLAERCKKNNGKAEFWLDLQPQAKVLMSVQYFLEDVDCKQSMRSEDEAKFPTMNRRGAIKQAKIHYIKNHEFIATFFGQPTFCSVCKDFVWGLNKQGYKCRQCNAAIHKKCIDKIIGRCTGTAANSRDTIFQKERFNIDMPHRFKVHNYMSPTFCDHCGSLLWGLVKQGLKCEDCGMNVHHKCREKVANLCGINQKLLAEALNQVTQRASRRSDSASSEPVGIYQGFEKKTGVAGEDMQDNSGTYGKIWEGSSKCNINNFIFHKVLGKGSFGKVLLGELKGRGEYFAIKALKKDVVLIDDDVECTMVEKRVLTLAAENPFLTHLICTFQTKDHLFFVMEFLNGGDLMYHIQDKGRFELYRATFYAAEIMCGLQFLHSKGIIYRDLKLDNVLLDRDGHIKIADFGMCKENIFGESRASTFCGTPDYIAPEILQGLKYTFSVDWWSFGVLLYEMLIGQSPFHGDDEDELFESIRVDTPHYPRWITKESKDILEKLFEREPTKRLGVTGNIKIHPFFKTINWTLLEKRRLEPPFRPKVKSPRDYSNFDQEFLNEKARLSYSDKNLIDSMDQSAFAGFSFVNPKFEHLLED
Chain of PKC theta kinase (Q04759 whole entry): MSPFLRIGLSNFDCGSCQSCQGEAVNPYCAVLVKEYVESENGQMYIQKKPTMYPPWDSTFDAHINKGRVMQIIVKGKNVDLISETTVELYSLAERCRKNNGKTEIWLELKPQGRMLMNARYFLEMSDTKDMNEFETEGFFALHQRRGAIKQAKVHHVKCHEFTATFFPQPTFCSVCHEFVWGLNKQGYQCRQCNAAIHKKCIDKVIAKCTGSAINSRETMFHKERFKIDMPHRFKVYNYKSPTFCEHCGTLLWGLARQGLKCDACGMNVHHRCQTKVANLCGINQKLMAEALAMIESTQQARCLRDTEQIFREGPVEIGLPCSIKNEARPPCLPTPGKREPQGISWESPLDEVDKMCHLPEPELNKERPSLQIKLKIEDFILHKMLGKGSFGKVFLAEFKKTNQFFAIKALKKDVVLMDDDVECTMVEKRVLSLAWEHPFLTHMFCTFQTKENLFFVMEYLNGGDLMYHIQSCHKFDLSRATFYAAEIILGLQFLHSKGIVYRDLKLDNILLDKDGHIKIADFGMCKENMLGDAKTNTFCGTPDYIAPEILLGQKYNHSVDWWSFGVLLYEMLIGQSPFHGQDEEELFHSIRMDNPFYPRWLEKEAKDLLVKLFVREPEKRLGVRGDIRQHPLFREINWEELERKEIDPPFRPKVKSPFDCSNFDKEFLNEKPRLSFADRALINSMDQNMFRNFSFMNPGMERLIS

Take `CC(C)(O)[C@@H]1CN(c2nc(-c3n[nH]c4ncccc34)c(F)cc2F)CCN1` [Compound 1, (S)-2-(4-(3,5-difluoro-6-(1H-pyrazolo[3,4-b]pyridin-3-yl)pyridin-2-yl)piperazin-2-yl)propan-2-ol]: the inhibition constant Ki at PKC theta kinase was less than 50 nM; at PKC delta kinase, less than 500 nM.
The corresponding values for `OC1(C2CN(c3nc(-c4n[nH]c5ncccc45)c(F)cc3F)CCN2)CCC1` (centres unmarked) [Compound 2] are less than 1 nM and less than 500 nM.
In the same order, the values of `CCC(O)(CC)[C@@H]1CN(c2nc(-c3n[nH]c4ncccc34)c(F)cc2F)CCN1` [Compound 3] are less than 1 nM and less than 500 nM.
In the same order, the values of `OC1([C@@H]2CN(c3nc(-c4n[nH]c5ncccc45)c(F)cc3Cl)CCN2)CC1` [Compound 4] are less than 1 nM and less than 50 nM.
Take `CC(C)(O)[C@@H]1CN(c2nc(-c3n[nH]c4ncccc34)c(F)cc2Cl)CCN1` [Compound 5]: the inhibitory constant (Ki) on PKC theta kinase was less than 1 nM; at PKC delta kinase it was less than 50 nM.
The corresponding values for `OC1(C2CN(c3nc(-c4n[nH]c5ncccc45)c(F)cc3Cl)CCN2)CCC1` (centres unmarked) [Compound 6] are less than 1 nM and less than 50 nM.
`CC(C)C[C@@H]1CN(c2nc(-c3n[nH]c4ncccc34)c(F)cc2F)CCN1` [Compound 7]: the inhibition constant Ki at PKC theta kinase was less than 50 nM.
Same read-out and setting: the same measure for `CC(C)C[C@@H]1CN(c2nc(-c3n[nH]c4ncccc34)c(F)cc2Cl)CCN1` [Compound 8]: less than 50 nM.
As for `OC[C@@H]1CN(c2nc(-c3n[nH]c4ncccc34)c(F)cc2Cl)CCN1` [Compound 9], the Ki on PKC theta kinase and on PKC delta kinase was less than 50 nM in each case.
For the compound `OC[C@@H]1CN(c2nc(-c3n[nH]c4ncccc34)c(F)cc2F)CCN1` [Compound 10], the values for the Ki at PKC theta kinase and on PKC delta kinase were less than 500 nM and greater than 1250 nM, respectively.
Regarding `CC(C)C[C@@H]1CN(c2nc(-c3n[nH]c4ncccc34)c(C#N)cc2F)CCN1` [Compound 11, (R)-5-fluoro-6-(3-isobutylpiperazin-1-yl)-2-(1H-pyrazolo[3,4-b]pyridin-3-yl)nicotinonitrile], the results for the inhibition constant Ki at PKC theta kinase and at PKC delta kinase were less than 2800 nM and greater than 1250 nM, respectively.
